Test results published in PubChem BioAssay AID652101 (NMMLSC, 2013).
Calls of active or inactive are those of the source.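 Rule for the calls: active = at least 15% inhibition at the top concentration together with an EC50 under 10 microM; inactive = the rest.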

Tested on: not listed separately
Assay: potency against LAMP-1 externalization in TALL-104 – TALL-104 cells, flow cytometry, CherryPick01, dose response (AID 652101);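 for inhibition: 0% = stimulated DMSO control and 100% = unstimulated control wells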
Conditions: TALL-104 lytic granule exocytosis, LAMP-1 flow cytometry; at 15.1 µM (top of the series)

With `Cc1cccc(C)c1-n1nnnc1C(CCc1ccccc1)N1CCC(n2c(=O)[nH]c3ccccc32)CC1` (stereo unspecified) as the compound, how does the inhibition read?
The inhibition was 94.8% (inactive).

Same assay, conditions: TALL-104 lytic granule exocytosis, LAMP-1 flow cytometry; at 15.1 µM (top of the series); stimulated with 1 µM thapsigargin, 50 nM PMA

Which inhibition does the source give for `CCOC(=O)c1c(CSc2ccccc2)n(C)c2cc(Br)c(O)c(CN(C)C)c12` here?
Its inhibition is 20.5% (inactive).

With `OC1(c2cccc(C(F)(F)F)c2)CCN(c2ncnc3c2[nH]c2ccc(F)cc23)CC1` as the compound, how does the inhibition read?
The inhibition was 107% (inactive).

With `CCc1ccc(CNC(=O)C2CCCN(c3nnc(C)c4c(C)n(-c5ccccc5)nc34)C2)cc1` (stereo unspecified) as the compound, how does the inhibition read?
The inhibition was 97.2% (inactive).

With `CCOC(=O)c1c(NC(=O)CSc2nnnn2-c2ccccc2OCC)sc2c1CC(C)(C)NC2(C)C` as the compound, how does the inhibition read?
Its inhibition is 84.6% (inactive).

With `CCOC(=O)c1c(C)oc2c1c(C(c1cccnc1)N1CCOCC1)c(O)c1ccccc12` (stereo unspecified) as the compound, how does the inhibition read?
Its inhibition is 95% (inactive).

Which inhibition does the source give for `COC(=O)[C@]12CCCCC=C1N(Cc1cccc3ccccc13)C(=O)[C@H](CC(=O)NCc1ccc(OC)c(OC)c1)C2` here?
The inhibition was 108% (inactive).

For `CC1(C(=O)OCC(=O)Nc2nc(-c3ccc(F)c(F)c3)cs2)CC1(Cl)Cl` (stereo unspecified), which inhibition is on record?
Its inhibition is 95% (inactive).

With `COc1ccc(Cl)c(-c2cc(C(=O)NCc3ccc(C(F)(F)F)cc3)[nH]n2)c1` as the compound, how does the inhibition read?
Its inhibition is 103% (inactive).

Which inhibition does the source give for `COc1ccc([N+](=O)[O-])cc1Nc1c2ccccc2nc2ccccc12` here?
Its inhibition is 79.8% (inactive).

Which inhibition does the source give for `CC(C)(c1ccccc1)c1ccc(OCC(O)CNC2CCN(Cc3ccccc3)CC2)cc1` (stereo unspecified) here?
Its inhibition is 31.5% (inactive).

For `CCC(C)Nc1nc(-c2cccc(OC)c2O)nc2ccccc12` (stereo unspecified), which inhibition is on record?
The inhibition was 101% (inactive).

With `O=c1c2ccc(F)cc2sn1-c1ccccc1` as the compound, how does the inhibition read?
Its inhibition is 75.9% (inactive).

For `CN(c1ccccc1)S(=O)(=O)c1cccc(C(=O)NCCc2c[nH]c3ccccc23)c1`, which inhibition is on record?
The inhibition was 42.1% (inactive).

Which inhibition does the source give for `C=C(C)COc1ccc(-c2n[nH]c(C)c2-c2ccc(OC)cc2)c(O)c1` here?
Its inhibition is 106% (inactive).

For `O=C1ON=C(c2ccccc2)/C1=C/c1ccc(-c2ccccc2[N+](=O)[O-])o1`, which inhibition is on record?
The inhibition was 102% (inactive).

For `Cc1cc(C(=O)CSc2nc3ccccc3[nH]2)c(C)n1CC1CCCO1` (stereo unspecified), which inhibition is on record?
Its inhibition is 89.3% (inactive).

With `N#Cc1ccc(NC(=O)Nc2ccc(Oc3ccc(NC(=O)Nc4ccc(C#N)cc4)cc3)cc2)cc1` as the compound, how does the inhibition read?
Its inhibition is 33.8% (inactive).

Which inhibition does the source give for `NCCc1c(-c2ccccc2)n(-c2ccccc2)c2ccccc12` here?
The inhibition was 68.2% (inactive).

Which inhibition does the source give for `CCCCCc1c(-c2cccc(F)c2)ncn1CCc1ccccc1OC` here?
The inhibition was 102% (inactive).

For `COc1ccc2[nH]c3c(N4CCc5ccccc5C4)ncnc3c2c1`, which inhibition is on record?
The inhibition was 89.2% (inactive).

With `CN1CCN(CCCNC(=O)c2ccc(/C=C3\Sc4ccccc4N(Cc4ccc(F)cc4)C3=O)cc2)CC1` as the compound, how does the inhibition read?
Its inhibition is 89.7% (inactive).

For `CC(C)c1ccccc1OCC(O)CN(CC(O)COc1cccc2ccccc12)C(C)C` (stereo unspecified), which inhibition is on record?
The inhibition was 101% (inactive).

Which inhibition does the source give for `O=C(CCN1CCc2ccccc2CC1)c1ccc2c(c1)OCCO2` here?
The inhibition was 73.6% (inactive).

Which inhibition does the source give for `Cc1ccc2c3c(cccc13)-c1ccccc1C2=O` here?
Its inhibition is 4.2% (inactive).

With `Brc1ccccc1C1Nc2cccc3cccc(c23)N1` as the compound, how does the inhibition read?
The inhibition was -2.38% (inactive).

Tested on: TALL-104 lytic granule exocytosis, LAMP-1 flow cytometry
Assay: as above
Conditions: stimulated with 1 µM thapsigargin, 50 nM PMA

For `c1ccc(CNc2nc(NCC3CC3)nc3cc(-c4ccccc4)sc23)cc1`, which EC50 is on record?
Its EC50 is 2.22 µM.

Which EC50 does the source give for `O=S(=O)(Nc1cc(Sc2ncn[nH]2)c(O)c2ccccc12)c1ccccc1` here?
The EC50 was 2.91 µM.

With `CCc1ccc(/C=C2/Sc3ccccc3N(CC(=O)NCCCN3CCOCC3)C2=O)cc1` as the compound, how does the EC50 read?
Its EC50 is 5.17 µM.

Which EC50 does the source give for `CN1CCN(Cc2nc3ccccc3c(=O)n2Cc2nc(-c3ccc([N+](=O)[O-])cc3)cs2)CC1` here?
Its EC50 is 6.16 µM.

Which EC50 does the source give for `CCCCC[C@@H](C)N1C[C@@H](COCc2ccccc2)Oc2cc(N3CC[C@@H](N(C)C)C3)ccc2S1(=O)=O` here?
The EC50 was 4.57 µM.

With `Cc1ccc(Nc2nc(NCc3ccco3)c3ccccc3n2)cc1` as the compound, how does the EC50 read?
Its EC50 is 4.7 µM.

For `CCOc1ccc2[nH]c3c(N4CCc5ccccc5C4)ncnc3c2c1`, which EC50 is on record?
The EC50 was 4.91 µM.

For `CCCCCCSc1cccc(-c2nc3ccccn3c2NCc2ccccc2)c1`, which EC50 is on record?
The EC50 was 7.71 µM.

For `COc1cccc(-c2cnc3c(NC(C)=O)cc(-c4ccccc4OC)cn23)c1`, which EC50 is on record?
The EC50 was 5.23 µM.

Which EC50 does the source give for `COc1ccc(-n2sc3ccccc3c2=O)cc1` here?
The EC50 was 9 µM.

For `CCCCC[C@@H](C)N1C[C@@H](COCc2ccccc2)Oc2cc(N3CC[C@H](N(C)C)C3)ccc2S1(=O)=O`, which EC50 is on record?
The EC50 was 9.73 µM.

With `O=c1c2ccccc2sn1-c1ccccc1` as the compound, how does the EC50 read?
Its EC50 is 2.36 µM.

For `O=C1Nc2ccc(Br)cc2/C1=C/C(=O)c1ccccc1`, which EC50 is on record?
Its EC50 is 3.13 µM.

For `CCOC(=O)c1cc(-c2csc(Nc3c(C)cc(C)cc3C)n2)on1`, which EC50 is on record?
The EC50 was 3.44 µM.

With `CC1COCC(C)N1C1=C(Cl)C(=O)c2ccccc2C1=O` (stereo unspecified) as the compound, how does the EC50 read?
The EC50 was 1.61 µM.

For `O=C(CN1C(=O)/C(=C\c2cccc(Br)c2)Oc2ccccc21)NCCCN1CCOCC1`, which EC50 is on record?
The EC50 was 4.61 µM.

For `COc1cccc(N2CCN(c3ncnc4c3[nH]c3ccc(F)cc34)CC2C)c1` (stereo unspecified), which EC50 is on record?
Its EC50 is 1.33 µM.

Which EC50 does the source give for `COc1ccccc1CNc1nc(NCc2ccc(C(C)C)cc2)c2sccc2n1` here?
Its EC50 is 5.34 µM.

Which EC50 does the source give for `COC(=O)c1c(NC(=O)c2nc3ccccc3s2)sc2c1CC(C)(C)NC2(C)C` here?
The EC50 was 6.27 µM.

Which EC50 does the source give for `COc1cccc(NC(=O)Nc2nc(-c3ccc(OC)c(OC)c3)cs2)c1` here?
Its EC50 is 4.83 µM.

For `Cc1cc(C)c2nc(C)cc(N/N=C/c3ccc(O)cc3)c2c1`, which EC50 is on record?
Its EC50 is 4.47 µM.

Which EC50 does the source give for `O=C1C=CC(=O)N1N(c1ccccc1)c1ccccc1` here?
Its EC50 is 5.02 µM.

Which EC50 does the source give for `Fc1ccc(/C=C\c2nccc3c2[nH]c2ccccc23)cc1` here?
The EC50 was 1.66 µM.

With `CCOc1ccc2nc(C)cc(Nc3cccc([N+](=O)[O-])c3)c2c1` as the compound, how does the EC50 read?
The EC50 was 6.14 µM.

Which EC50 does the source give for `Cc1cc(N2CCN(c3nc(-c4ccc([N+](=O)[O-])cc4)cs3)CC2)c2ccccc2n1` here?
The EC50 was 1.62 µM.

For `O=S(=O)(c1ccccc1)c1nnn2c1nc(NC1CCN(Cc3ccccc3)CC1)c1cc(Cl)ccc12`, which EC50 is on record?
The EC50 was 4.22 µM.

Which EC50 does the source give for `COc1ccc(N2C(=O)CC(Sc3nnc(-c4ccccc4)o3)C2=O)cc1` (stereo unspecified) here?
The EC50 was 0.897 µM.

With `CCCS(=O)(=O)Nc1ccc(Nc2c3ccccc3nc3ccccc23)c(OC)c1` as the compound, how does the EC50 read?
The EC50 was 3.38 µM.

Which EC50 does the source give for `O=C(Cn1sc2ccccc2c1=O)Nc1ccc(F)cc1` here?
The EC50 was 5.2 µM.

Which EC50 does the source give for `COc1ccccc1CNc1nc(NCc2ccc3occc3c2)c2sccc2n1` here?
The EC50 was 4.23 µM.

Which EC50 does the source give for `CCN(CC)CCCNc1ccc(-c2nnc(-c3ccc(OCC(C)C)cc3)o2)cn1` here?
Its EC50 is 2.35 µM.

Which EC50 does the source give for `O=C(OCc1ccccc1)N(CCCCN(CCCNCc1ccccc1)C(=O)OCc1ccccc1)CCCNCc1ccccc1` here?
Its EC50 is 1.24 µM.

Which EC50 does the source give for `O=C(Nc1ccc(F)cc1)c1nc(S(=O)(=O)Cc2ccccc2)ncc1Cl` here?
The EC50 was 0.344 µM.

For `N#Cc1c(Nc2ccccc2Cl)s[nH]c1=O`, which EC50 is on record?
Its EC50 is 3.82 µM.

With `Cc1ccc(S(=O)(=O)n2ccc3c(OCCOCCNCc4ccc(F)cc4)cccc32)cc1` as the compound, how does the EC50 read?
Its EC50 is 4.41 µM.

With `CC1=NOC(=O)/C1=C/c1ccc(-c2ccc(Cl)cc2)o1` as the compound, how does the EC50 read?
Its EC50 is 1.68 µM.

Which EC50 does the source give for `O=C(Cn1sc2ccccc2c1=O)NC12CC3CC(CC(C3)C1)C2` here?
Its EC50 is 5.13 µM.

With `CN1Cc2c(N3CCOCC3)nc3sc(C(=O)c4ccc(Br)cc4)c(N)c3c2CC1(C)C` as the compound, how does the EC50 read?
The EC50 was 3.23 µM.

For `O=c1c2ccccc2sn1-c1ccccc1F`, which EC50 is on record?
Its EC50 is 4.78 µM.

Which EC50 does the source give for `CC1=C(C)CS(=O)N(S(=O)(=O)c2ccc(Cl)cc2)C1` (stereo unspecified) here?
The EC50 was 2.88 µM.

Which EC50 does the source give for `Cc1ccc(-n2nnc3c(=O)oc4ccccc4c32)cc1` here?
The EC50 was 2.46 µM.

With `CCOC(=O)c1c(NC(=O)COc2ccccc2OCC)sc2c1CC(C)(C)NC2(C)C` as the compound, how does the EC50 read?
The EC50 was 1.2 µM.

For `CCCCn1c(=N)n(CC(=O)c2ccc(Br)s2)c2ccccc21`, which EC50 is on record?
Its EC50 is 3.99 µM.

For `O=C1CC(Sc2nnnn2-c2ccccc2)C(=O)N1c1cccc(Cl)c1` (stereo unspecified), which EC50 is on record?
The EC50 was 0.289 µM.

For `COc1cccc(-c2cnc3c(NC(C)=O)cc(-c4ccsc4)cn23)c1`, which EC50 is on record?
The EC50 was 4.98 µM.
